Experimental data: patent US20120295920A1, “5-AMINO-4-HYDROXYPENTOYL AMIDES” (priority 2009, published 2012)
Where two headings read alike, the source gives them in different places.

Legend:
HIV-1 IIIB = test: 50% HS-Rezazurin: antiviral assay in the presence of 50% human serum, MT-4 cells, resazurin cell viability; assay type: cell-based
Protocol: For the Antiviral assay in the presence of 50% human serum MT-4 cells were infected with HIV-1 IIIB at a MOI of 0.001 to 0.01 CCID50/cell in RPMI1640 medium. Following 1 h of incubation, cells were washed and plated into a 96-well plate containing serial dilutions of compound in the presence of 10% fetal calf serum (FCS), or 50% human serum. After 4 days incubation, the EC50 in the presence of 50% human serum was determined by a cell viability assay using resazurin.
The last column lists the results for the wild-type strain IIB in the presence of 50% human serum MT-4 cells.

[1] = system: HIV-1 Strain B (M046I, I050V); test: microbe, parasite or virus in culture; assay type: cell-based; conditions: clinical isolate Strain B; read-out: B EC50
Protocol: (§1) MT4-LTR-EGFP cells were obtained by transfecting MT4 cells with a selectable construct encompassing the sequences coding for the HIV long terminal repeat (LTR) as a promoter for the expression of enhanced green fluorescent protein (EGFP) and subsequent selection of permanently transfected cells.
(§2) The antiviral activity on different HIV-1 strains, was determined in a cell-based virus replication assay. Here MT4-LTR-EGFP cells (150,000 cells/ml) are infected (multiplicity of infection [MOI] of 0.0025) in the presence or absence of different inhibitor concentrations. Two methodologies for read-out were used, either quantification of GFP-fluoresence on day 3 post-infection, or quantification of cell-viability using rezazurin (as described by Fields, R. D., and M. V. Lancaster (1993) Am. Biotechnol. Lab. 11:48-50) on day 4 post infection.
(§3) In the following Table, Strains A, B, and C are clinical isolates that include the following protease inhibitor resistance mutations in the protease domain (background mutations are not mentioned).

[2] = system: HIV-1 Strain A (M046I, I084V); test: microbe, parasite or virus in culture; assay type: cell-based; conditions: clinical isolate Strain A; read-out: A EC50
Protocol: as §1, §2, §3

[3] = system: HIV-1 Strain C (G048G/V, V082A); test: microbe, parasite or virus in culture; assay type: cell-based; conditions: clinical isolate Strain C; read-out: C EC50
Protocol: as §1, §2, §3

mock-infected MT4 cells = test: General toxicity assay on mock-infected MT4 cells with CMV-EGFP reporter (CC50); assay type: cell-based
HIV-1 wild-type strain = test: General antiviral assay, cell-based virus replication in MT4-LTR-EGFP cells, wild-type strain; conditions: wild-type strain IIIB, MT4-LTR-EGFP cells
Protocol: as §1, §2

[4] = MT4LTR cells, read-out: TOX-MT4LTR (CC50)
[5] = mock-infected MT4 cells with CMV-EGFP reporter, read-out: TOX-MT4CMV (CC50)

| Compound | EC50 (HIV-1 IIIB) [nM] | EC50 [1] [nM] | EC50 [2] [nM] | EC50 [3] [nM] | CC50 (mock-infected MT4 cells; [4]) [µM] | EC50 (HIV-1 wild-type strain) [nM] | CC50 (mock-infected MT4 cells; [5]) [µM] |
| --- | --- | --- | --- | --- | --- | --- | --- |
| COCCNC(=O)[C@@H](NC(=O)[C@H](Cc1ccccc1Cl)C[C@H](O)[C@H](Cc1ccc(-c2ccc(OC)nc2)cc1)NC(=O)[C@@H](NC(=O)OC)C(C)(C)C)C(C)(C)C [Compound 98] | 11.2 | 1 | 3.7 | 2.2 | > 32 | 2.1 | – |
| COC(=O)N[C@H](C(=O)N[C@@H](Cc1ccc(-c2ccc(OC)nc2)cc1)[C@@H](O)C[C@@H](Cc1cccc(OC)c1)C(=O)N[C@H]1c2cc(Cl)ccc2OC[C@H]1O)C(C)(C)C [Compound 27] | 10.7 | 2.2 | 2.8 | 1.6 | > 32 | 3.1 | > 32 |
| COC(=O)NC(C(=O)NC(Cc1ccc(-c2cc(C)nc(C)c2)cc1)C(O)CC(Cc1ccccc1F)C(=O)NC1c2cc(Cl)ccc2OCC1O)C(C)(C)C (centres unmarked) [Compound 12] | 35.7 | 3 | 3.7 | 2.2 | – | 4 | > 32 |
| COC(=O)NC(C(=O)NC(Cc1ccc(-c2ccc(OC)nc2)cc1)C(O)CC(Cc1ccccc1F)C(=O)NC1c2cc(Cl)ccc2OCC1O)C(C)(C)C (centres unmarked) [Compound 18] | 14 | 2 | 3 | 1.6 | > 32 | 2.7 | > 32 |
| COC(=O)N[C@H](C(=O)N[C@@H](Cc1ccc(-c2cnc(N(C)C)nc2)cc1)[C@@H](O)C[C@@H](Cc1cccc(OC(F)(F)F)c1)C(=O)N[C@H]1c2cc(Cl)ccc2OC[C@H]1O)C(C)(C)C [Compound 49] | 19 | 3.5 | 5.2 | 2.9 | > 32 | 4.1 | – |
| COC(=O)N[C@H](C(=O)N[C@@H](Cc1ccc(-c2ccc(OC)nc2)cc1)[C@@H](O)C[C@@H](Cc1ccccc1F)C(=O)N[C@H]1c2cccc(Cl)c2OC[C@H]1O)C(C)(C)C [Compound 45] | 5.2 | 0.8 | 1.2 | 0.7 | > 32 | 3.5 | – |
| CCc1ncc(-c2ccc(C[C@H](NC(=O)[C@@H](NC(=O)OC)C(C)(C)C)[C@@H](O)C[C@@H](Cc3ccccc3F)C(=O)N[C@H](C(=O)NC)C(C)(C)C)cc2)s1 [Compound 84] | 28 | 3.3 | 4.7 | 2.4 | – | 6.4 | > 32 |
| COC(=O)NC(C(=O)NC(Cc1ccc(-c2ccc(OC)nc2)cc1)C(O)CC(Cc1ccccc1F)C(=O)NC1c2cc(C)cc(F)c2OCC1O)C(C)(C)C (centres unmarked) [Compound 101] | 9.8 | 2.4 | 2.5 | 1.7 | > 32 | 2.8 | – |
| CNC(=O)[C@@H](NC(=O)[C@H](Cc1ccccc1F)C[C@H](O)[C@H](Cc1ccc(-c2ccc(OC)nc2)cc1)NC(=O)[C@@H](NC(=O)OC)C(C)(C)C)C(C)(C)C [Compound 88] | 9.9 | 2.8 | 4.8 | 3 | – | 3.4 | > 32 |
| COC(=O)NC(C(=O)NC(Cc1ccc(-c2ccc(OC)nc2)cc1)C(O)CC(Cc1ccccc1F)C(=O)NC1C(C)CCC1O)C(C)(C)C (centres unmarked) [Compound 99] | 3.3 | 0.6 | 1.7 | 0.9 | > 32 | 1.1 | – |
| COC(=O)N[C@H](C(=O)N[C@@H](Cc1ccc(-c2csc(OC)n2)cc1)[C@@H](O)C[C@@H](Cc1ccccc1F)C(=O)N[C@H]1c2cc(Cl)ccc2OC[C@H]1O)C(C)(C)C [Compound 29] | 13.7 | 3.4 | 6.6 | 3.1 | – | 5.5 | 10 |
| COC(=O)N[C@H](C(=O)N[C@@H](Cc1ccc(-c2ccc(N(C)C)nc2)cc1)[C@@H](O)C[C@@H](Cc1cccc(OC)c1)C(=O)N[C@H]1c2cc(F)ccc2OC[C@H]1O)C(C)(C)C [Compound 26] | 15.4 | 3.4 | 4.2 | 3.2 | – | 5 | > 32 |
| COC(=O)NC(C(=O)NC(Cc1ccc(-c2ccc(OC)nc2)cc1)C(O)CC(Cc1cccc(Cl)c1)C(=O)NC1c2ccccc2OCC1O)C(C)(C)C (centres unmarked) [Compound 3] | 13.6 | 3.5 | 2.3 | 2.4 | – | 2.6 | > 32 |
| COc1ccc(-c2ccc(C[C@H](NC(=O)O[C@H]3CO[C@H]4OCC[C@H]43)[C@@H](O)C[C@@H](Cc3ccccc3F)C(=O)N[C@H]3[C@H](C)CCC[C@H]3O)cc2)cn1 [Compound 82] | 5.1 | 0.8 | 1.1 | 0.7 | > 27 | 1.8 | – |
| COC(=O)N[C@H](C(=O)N[C@@H](Cc1ccc(-c2ccc(OC)nc2)cc1)[C@@H](O)C[C@@H](Cc1cccc(OC(F)(F)F)c1)C(=O)N[C@H]1c2cc(Cl)ccc2OC[C@H]1O)C(C)(C)C [Compound 42] | 23.7 | 4.1 | 7.2 | 3.9 | > 32 | 4.2 | > 32 |
| COC(=O)N[C@H](C(=O)N[C@@H](Cc1ccc(-c2ccnc(C(F)(F)F)c2)cc1)[C@@H](O)C[C@@H](Cc1ccccc1F)C(=O)N[C@H]1c2cc(Cl)ccc2OC[C@H]1O)C(C)(C)C [Compound 31] | 26.4 | 3.2 | 5 | 3.4 | – | 7 | > 32 |
| COC(=O)NC(C(=O)NC(Cc1ccc(-c2ccc(N(C)C)nc2)cc1)C(O)CC(Cc1cccc(Cl)c1)C(=O)NC1c2cc(Cl)ccc2OCC1O)C(C)(C)C (centres unmarked) [Compound 5] | 28.6 | 4.4 | 5.4 | 5.1 | – | 4.7 | > 32 |
| COC(=O)N[C@H](C(=O)N[C@@H](Cc1ccc(-c2ccc(OC)nc2)cc1)[C@@H](O)C[C@@H](Cc1cccc(F)c1)C(=O)N[C@H]1c2cc(Cl)ccc2OC[C@H]1O)C(C)(C)C [Compound 39] | 16.4 | 2.1 | 3.9 | 1.3 | > 32 | 3 | > 32 |
| Cc1cccc(C)c1OCC(=O)N[C@@H](Cc1ccccc1)[C@@H](O)C[C@H](Cc1ccccc1)NC(=O)[C@H](C(C)C)N1CCCNC1=O [LPV] | 61 | 320 | 110 | 31 | > 32 | 13 | 20 |
| COC(=O)N[C@H](C(=O)N[C@@H](Cc1ccc(-c2ccc(N(C)C)nc2)cc1)[C@@H](O)C[C@@H](Cc1ccccc1F)C(=O)N[C@H]1c2cc(Cl)cc(F)c2OC[C@H]1O)C(C)(C)C [Compound 60] | 25.2 | 1.9 | 2.6 | 1.2 | 10 | 4.1 | – |
| COC(=O)N[C@H](C(=O)N[C@@H](Cc1ccc(-c2cnc(OC)nc2)cc1)[C@@H](O)C[C@@H](Cc1cccc(F)c1)C(=O)N[C@H]1c2cc(F)ccc2OC[C@H]1O)C(C)(C)C [Compound 65] | 24.7 | 3.6 | 4.5 | 2.3 | > 32 | 9.1 | – |
| COC(=O)NC(C(=O)NC(Cc1ccc(-c2ccc(N(C)C)nc2)cc1)C(O)CC(Cc1cccc(OC)c1)C(=O)NC1c2ccccc2OCC1O)C(C)(C)C (centres unmarked) [Compound 15] | 8.7 | 1.2 | 2.1 | 1.3 | – | 2 | > 32 |
| COC(=O)NC(C(=O)NC(Cc1ccc(-c2ccc(N(C)C)nc2)cc1)C(O)CC(Cc1ccccc1F)C(=O)NC1c2cc(F)cc(F)c2OCC1O)C(C)(C)C (centres unmarked) [Compound 10] | 20.1 | 2.5 | 4 | 1.7 | – | 3.2 | > 32 |
| COc1ccc(-c2ccc(CC(NC(=O)C(NC(=O)CN3CCCC3)C(C)(C)C)C(O)CC(Cc3ccccc3F)C(=O)NC3C(C)CCCC3O)cc2)cn1 (centres unmarked) [Compound 97] | 12.7 | 2.8 | 4.7 | 2 | > 32 | 5.6 | – |
| COC(=O)N[C@H](C(=O)N[C@@H](Cc1ccc(-c2cncc(N(C)C)n2)cc1)[C@@H](O)C[C@@H](Cc1ccccc1F)C(=O)N[C@H]1c2cc(Cl)ccc2OC[C@H]1O)C(C)(C)C [Compound 25] | 26.4 | 2.7 | 4.6 | 2.5 | – | 4.9 | > 32 |
